Measured values from patent US20180085371A1, “COMBINATION OF PANOBINOSTAT AND RUXOLITINIB IN THE TREATMENT OF CANCER SUCH AS A MYELOPROLIFERATIVE NEOPLASM” (Novartis AG, priority 2011, published 2018).

Tested on: p-STAT5
Assay: PD marker p-STAT5 by IHC in spleen and bone marrow
Format: in vivo, mouse
Settings: Compound A 60 mg/kg single agent or with Compound B 8 mg/kg
Procedure: The p-STAT5 PD marker of Compound A and Acetylated Histone H3 PD marker of Compound B were assessed in spleen and bone marrow. Briefly, the spleen was removed in total, weighed and placed on a dissection tray. The spleen was cut transverse in two halves and two equal pieces were taken from the middle parts using a scalpel. Spleen pieces were not allowed to exceed 3-4 mm in thickness. Spleen pieces were transferred into labeled histocassettes and immersion-fixed in neutral buffered formalin (NBF) 10% (v/v) at room temperature (pH 6.8-7.2) (J.T. Baker, Medite, Switzerland). Fixative volume was at least tenfold in excess compared to tissue volume. […]
For histological evaluation, BM cellularity was evaluated as hypercellularity (3+), normocellularity (2+), and hypocellularity (1+). Splenic architecture was evaluated as destroyed (1+) or preserved (0). Presence of myeloid, erythroid and adipocytes cells was evaluated as 0, 1+, 2+, 3+ based on cellularity. […] Whole slide automated quantitative assessment of p-STAT5-positive and -negative cell nuclei were performed using Definiens eCognition software (eCognition version XD 1.5, Definiens AG, Germany). The results were expressed as percent of positive p-STAT5 nuclei out of total nuclei. Staining of acetylated histone H3 was scored as 1+, 2+, 3+ based on staining intensity and number of positive cells.

## N#CC[C@H](C1CCCC1)n1cc(-c2ncnc3[nH]ccc23)cn1 [Compound A, (R)-3-(4-(7H-pyrrolo[2,3-d]pyrimidin-4-yl)-1H-pyrazol-1-yl)-3-cyclopentylpropanenitrile]
  p-STAT5 PD marker (IHC): clear reduction
